According to the supplement of paper PMC8882468:

What was measured:
Test in all cases: CTG-3D luminescence at 96 h relative to day-0 seeding control (ratio to day 0); higher = more growth / less cytotoxicity; PDxO 3D drug screen (set 2), 96 h, CTG-3D normalised to day-0 seeding control.
HCI-003.E2 = system: HCI-003.E2 (organoid from an ER-positive breast cancer xenograft)
HCI-010 = system: HCI-010 (organoid from a breast cancer xenograft)
HCI-011.E2 = system: HCI-011.E2 (organoid from an ER-positive breast cancer xenograft)
HCI-012 = system: HCI-012 (organoid from a breast cancer xenograft)
HCI-027 = system: HCI-027 (organoid from a triple-negative breast cancer xenograft)

CO[C@H]1C[C@@H]2CC[C@@H](C)[C@@](O)(O2)C(=O)C(=O)N2CCCC[C@H]2C(=O)O[C@H]([C@H](C)C[C@@H]2CC[C@@H](OCCO)[C@H](OC)C2)CC(=O)[C@H](C)/C=C(\C)[C@@H](O)[C@@H](OC)C(=O)[C@H](C)C[C@H](C)/C=C/C=C/C=C/1C [everolimus]
CTG-3D luminescence at 96 h
Conditions | 12.5 pM | 0.00025 µM | 0.005 µM | 0.1 µM | 1 µM | 10 µM | 100 µM | 625 fM
HCI-003.E2 | 1.22 | 1.04 | 0.796 | 0.297 | 0.0538 | 0.03 | 0.000105 | 1.67
HCI-011.E2 | 0.746 | 0.907 | 0.684 | 0.675 | 0.247 | 0.327 | -4.7e-05 | 1.14

CTG-3D luminescence at 96 h
Conditions | 12.5 pM | 0.00025 µM | 0.005 µM | 0.1 µM | 1 µM | 10 µM | 100 µM | 625 fM
HCI-010, days in culture: 79 | 1.18 | 1.21 | 1.18 | 1.28 | 1.13 | 1.12 | -0.00276 | 1.31
HCI-010, days in culture: 86 | 1.76 | 1.9 | 1.53 | 1.19 | 0.809 | 0.648 | -0.000872 | 2.35
HCI-010, days in culture: 102 | 1.16 | 0.848 | 0.691 | 0.497 | 0.337 | 0.158 | -0.000165 | 1.13
HCI-010, days in culture: 164 | 1.53 | 1.42 | 1.25 | 0.906 | 0.778 | 0.581 | 0.000191 | 1.52
HCI-011.E2, days in culture: 74 | 2.42 | 2.16 | 1.14 | 0.719 | 0.223 | 0.141 | -0.0134 | 2.48
HCI-012, days in culture: 214 | 2.76 | 1.49 | 1.21 | 1.84 | 1.41 | 1.69 | -0.000454 | 2.25
HCI-012, days in culture: 243 | 1.34 | 2.16 | 1.46 | 1.87 | 1.38 | 2.11 | -0.000228 | 1.9
HCI-012, days in culture: 256 | 2.03 | 1.8 | 1.71 | 2.19 | 1.42 | 1.38 | -0.00358 | 1.92
HCI-012, days in culture: 284 | 1.39 | 1.69 | 1.18 | 1.72 | 0.508 | 0.327 | -0.00211 | 2.6
HCI-027, days in culture: 145 | 1.16 | 1.53 | 1.5 | 1.39 | 1.19 | 0.742 | -0.00159 | 1.87
HCI-027, days in culture: 158 | 1.27 | 1.84 | 2.74 | 2.29 | 2.53 | 0.866 | -0.00155 | 5.49
HCI-027, days in culture: 164 | 2.66 | 1.52 | 1.32 | 1.43 | 0.817 | 0.404 | 0.000466 | 2.04
HCI-027, days in culture: 176 | 2.43 | 2.12 | 1.35 | 1.31 | 1.44 | 0.309 | 0.000718 | 2.75
HCI-027, days in culture: 186 | 1.24 | 1.55 | 2.18 | 1.05 | 0.291 | 0.288 | 0.00707 | 3.1

CS(=O)(=O)CCNCc1ccc(-c2ccc3ncnc(Nc4ccc(OCc5cccc(F)c5)c(Cl)c4)c3c2)o1 [lapatinib]
CTG-3D luminescence at 96 h
Conditions | 12.5 pM | 0.00025 µM | 0.005 µM | 0.1 µM | 1 µM | 10 µM | 100 µM | 625 fM
HCI-003.E2 | 2.53 | 2.41 | 2.48 | 2.27 | 1.77 | 0.0655 | 0.000467 | 2.95
HCI-011.E2 | 1.6 | 1.63 | 1.26 | 1.72 | 1.57 | 0.982 | 0.0218 | 2.23

CTG-3D luminescence at 96 h
Conditions | 12.5 pM | 0.00025 µM | 0.005 µM | 0.1 µM | 1 µM | 10 µM | 100 µM | 625 fM
HCI-010, days in culture: 79 | 1.89 | 1.81 | 2.03 | 2.16 | 2.02 | 0.69 | -0.00188 | 2.06
HCI-010, days in culture: 86 | 2.21 | 2.38 | 2.53 | 2.49 | 2.33 | 0.631 | 0.0027 | 2.48
HCI-010, days in culture: 102 | 1.1 | 1.16 | 1.11 | 1.32 | 1.48 | 0.154 | 8.25e-05 | 1.09
HCI-010, days in culture: 164 | 1.78 | 1.5 | 1.5 | 1.46 | 1.78 | 0.353 | 0.000987 | 1.63
HCI-011.E2, days in culture: 74 | 2.75 | 2.14 | 2.07 | 2.34 | 1.66 | 0.607 | -0.00505 | 2.76
HCI-012, days in culture: 214 | 2.69 | 3.04 | 1.24 | 2.07 | 1.18 | 0.474 | 0.0116 | 2.99
HCI-012, days in culture: 243 | 2.16 | 2.36 | 2.03 | 2.3 | 1.73 | 1.17 | 0.00575 | 2.33
HCI-012, days in culture: 256 | 1.96 | 2.5 | 2.14 | 2.69 | 1.63 | 1.22 | 0.0102 | 2.35
HCI-012, days in culture: 284 | 1.64 | 2.45 | 1.64 | 2.11 | 1.41 | 0.504 | -0.00107 | 3.12
HCI-027, days in culture: 145 | 1.6 | 2.25 | 1.81 | 1.29 | 0.739 | 0.0785 | 0.00359 | 2.05
HCI-027, days in culture: 158 | 1.68 | 2.65 | 3.39 | 2.02 | 2.72 | 0.902 | 0.00689 | 5.17
HCI-027, days in culture: 164 | 2.91 | 1.7 | 1.91 | 1.36 | 1.57 | 0.126 | 0.00219 | 1.64
HCI-027, days in culture: 176 | 4.02 | 2.45 | 1.33 | 2.41 | 1.57 | 0.0427 | 0.00427 | 1.78
HCI-027, days in culture: 186 | 1.46 | 2.11 | 2.88 | 2.74 | 0.49 | 0.0763 | 0.00176 | 2.77

O=C(c1cc(Cc2n[nH]c(=O)c3ccccc23)ccc1F)N1CCN(C(=O)C2CC2)CC1 [olaparib]
CTG-3D luminescence at 96 h
Conditions | 12.5 pM | 0.00025 µM | 0.005 µM | 0.1 µM | 1 µM | 10 µM | 100 µM | 625 fM
HCI-003.E2 | 2.72 | 2.74 | 2.72 | 2.75 | 2.24 | 1.27 | 0.0215 | 2.79
HCI-011.E2 | 1.58 | 1.55 | 1.41 | 1.95 | 1.6 | 1.14 | 0.266 | 2.1

CTG-3D luminescence at 96 h
Conditions | 12.5 pM | 0.00025 µM | 0.005 µM | 0.1 µM | 1 µM | 10 µM | 100 µM | 625 fM
HCI-010, days in culture: 79 | 2.04 | 1.79 | 2.08 | 2.11 | 1.98 | 1.43 | 0.445 | 2.19
HCI-010, days in culture: 86 | 2.3 | 2.5 | 2.59 | 2.35 | 2.34 | 1.68 | 0.309 | 2.43
HCI-010, days in culture: 102 | 1.21 | 1.27 | 1.15 | 1.36 | 1.26 | 0.657 | 0.0517 | 1.12
HCI-010, days in culture: 164 | 1.72 | 1.56 | 1.64 | 1.57 | 1.54 | 0.88 | 0.272 | 1.61
HCI-011.E2, days in culture: 74 | 2.53 | 2.44 | 2.19 | 2.22 | 1.57 | 0.94 | 0.157 | 2.66
HCI-012, days in culture: 214 | 2.61 | 3.14 | 2.09 | 1.89 | 1.68 | 0.943 | 0.704 | 2.64
HCI-012, days in culture: 243 | 1.73 | 2.04 | 1.86 | 2.25 | 1.49 | 1.74 | 1.2 | 2.06
HCI-012, days in culture: 256 | 2.25 | 1.86 | 2.13 | 3.12 | 2.12 | 1.26 | 1.08 | 2.1
HCI-012, days in culture: 284 | 1.75 | 1.95 | 1.42 | 2.17 | 1.42 | 1.42 | 0.15 | 3
HCI-027, days in culture: 145 | 1.79 | 3.31 | 2.66 | 1.56 | 1.71 | 2.13 | 0.976 | 1.89
HCI-027, days in culture: 158 | 1.27 | 3.16 | 2.16 | 2.6 | 1.87 | 3.12 | 1.79 | 3.17
HCI-027, days in culture: 164 | 4.1 | 1.37 | 2.13 | 2.08 | 1.58 | 0.874 | 0.555 | 2.58
HCI-027, days in culture: 176 | 3.94 | 1.97 | 1.54 | 1.61 | 2.6 | 0.771 | 0.452 | 1.65
HCI-027, days in culture: 186 | 0.87 | 1.38 | 2.3 | 3.57 | 1.26 | 1.58 | 0.34 | 3.34
